According to ChEMBL document CHEMBL3272235, “alpha-(2-Pyridine)benzyl aryl ketones as potential hypocholesteremic agents” (J Med Chem, 1978):

Key:
Rattus norvegicus [1] = test: Hypocholesteremic activity in Sprague-Dawley rat assessed as change in serum cholesterol level at 25 mg/kg, po administered through intubation tube daily for 7 days measured 24 hrs post last dose relative to vehicle-treated control; assay type: functional
Rattus norvegicus [2] = test: Estrogenic activity in ovariectomized female Sprague-Dawley rat assessed as change in uterus weight measured as micrograms of […]-estradiol that produce an estrogenic response equivalent to compound at 25 mg/kg, po administered through intubation tube daily for 7 days; assay type: ADME, organism-based; set-up: dose 25 mg/kg, route oral; settings: in vivo, 168 h

SMILES	Activity (Rattus norvegicus [1]) [%]	estradiol equivalent (Rattus norvegicus [2]) [µg]
O=C(c1ccc(I)cc1)C(c1ccccc1)c1ccccn1 (configuration not stated)	0	
O=C(c1ccc(F)cc1)C(c1ccccc1)c1ccccn1 (configuration not stated)	-1.3	
O=C(c1ccc(Cl)cc1)C(c1ccccc1)c1ccccn1 (configuration not stated)	-3.5	
O=C(c1ccccc1Oc1ccccc1)C(c1ccccc1)c1ccccn1 (configuration not stated)	-15	
COc1ccc(C(=O)C(c2ccccc2)c2ccccn2)cc1Br (configuration not stated)	11.3	
Cc1ccc(C(=O)C(c2ccccc2)c2ccccn2)cc1 (configuration not stated)	1.5	
COc1ccc(C(=O)C(c2ccccc2)c2ccccn2)cc1 (configuration not stated)	-15.7	
CC(C)(C)c1ccccc1C(=O)C(c1ccccc1)c1ccccn1 (configuration not stated)	-42	0.29
O=C(c1ccccc1F)C(c1ccccc1)c1ccccn1 (configuration not stated)	-30	0.45
COc1ccc(C(=O)C(c2ccccc2)c2ccccn2)cc1OC (configuration not stated)	6.3	
O=C(c1cccc(Br)c1)C(c1ccccc1)c1ccccn1 (configuration not stated)	6.7	
O=C(c1ccccc1)C(c1ccccc1)c1ccccn1 (configuration not stated)	2.5	
O=C(c1ccc(OCc2ccccc2)cc1)C(c1ccccc1)c1ccccn1 (configuration not stated)	9.3	
O=C(c1cc(-c2ccccc2)nc2cc(Cl)ccc12)C(c1ccccc1)c1ccccn1 (configuration not stated)	3.8	
CC(C)(C)c1ccc(C(=O)C(c2ccccc2)c2ccccn2)cc1 (configuration not stated)	0	
O=C(c1ccccc1Cl)C(c1ccccc1)c1ccccn1 (configuration not stated)	-56.9	0.8
O=C(c1ccccc1Br)C(c1ccccc1)c1ccccn1 (configuration not stated)	-54.1	0.87
O=C(c1cccc(OCc2ccccc2)c1)C(c1ccccc1)c1ccccn1 (configuration not stated)	12.1	
O=C(c1cccc(Cl)c1)C(c1ccccc1)c1ccccn1 (configuration not stated)	0	
O=C(c1ccc(Br)cc1)C(c1ccccc1)c1ccccn1 (configuration not stated)	-22.8	
O=C(c1ccc2c(c1)OCO2)C(c1ccccc1)c1ccccn1 (configuration not stated)	6.3	
O=C(c1cccnc1)C(c1ccccc1)c1ccccn1 (configuration not stated)	-2.1	
Cc1cccc(C(=O)C(c2ccccc2)c2ccccn2)c1 (configuration not stated)	13.2	
Cc1ccccc1C(=O)C(c1ccccc1)c1ccccn1 (configuration not stated)	-64.9	0.82
O=C(c1ccc2ccccc2c1)C(c1ccccc1)c1ccccn1 (configuration not stated)	0	
O=C(c1ccccc1I)C(c1ccccc1)c1ccccn1 (configuration not stated)	-77.1	0.7
